Data as given in patent publication US20020013264A1, “Neoglycan anticancer agents and uses thereof” (priority 1999, published 2002).

Key:
[1] = system: ARP-1 multiple myeloma cell line; assay: MTT cell viability assay, ARP-1 cells; format: cell-based, human; conditions: 500 μg/ml (FIG. 1 legend), 72 hours
Description: ARK, ARP-1, and CAG cells are B lymphoid cell lines established at the Arkansas Cancer Research Center from bone marrow aspirates of multiple myeloma patients (Ridley, Xiao et al. 1993). U266 is a multiple myeloma cell line that was obtained from the American Type Culture Collection (ATCC, Manassas, Va.). ARH-77 cells (ATCC, Manassas, Va.) were established from the peripheral blood of a patient with plasma cell leukemia (Burk, Drewinko et al. 1978). Peripheral blood mononuclear cells (PBMCs) were collected from healthy donors by Ficol-Hypaque separation of whole blood and were mitogen activated for 3 days with 2.5 μg/ml PHA (Sigma, St Louis, Mo.) prior to neoglycan treatment. The cell lines and peripheral blood mononuclear cells were grown in RPMI 1640 supplemented with 10% fetal bovine serum, 2 mM L-glutamine, 1 00 U/ml penicillin and 100 μg/ml streptomycin sulfate. […]
Cells were plated in the appropriate media on 96-well plates in a 100 μl total volume. […] Cell viability was determined based mitochondrial conversion of 3[4,5-Dimethylthiazol-2-yl]-2,5-diphenyltetrazolium bromide (MTT, Sigma, St Louis, Mo.) to formazan. […] The plates were gently agitated until the color reaction was uniform and the OD540 was determined using a microplate reader. […]

ARP-1 cells = assay: Apoptosis by Annexin V-FITC staining and PI exclusion, ARP-1; format: cell-based, human; conditions: discussion summary of Annexin V and TUNEL results
Method: (§1) ARP-1 cells and MDA-MB-231 cells were treated with media only, 32 μg/ml GAG chains and 32 μg/ml neoglycans. The ARP-1 cells were harvested following a 48 hour incubation period and the MDA-MB-231 cells were harvested after a 96 hour incubation period. The induction of apoptosis was determined by staining with fluorescein isothiocyanated-labeled Annexin V (Annexin V-FITC, CALTAG Laboratories, Burlingame, Calif.) following the manufacturer's instructions. Just prior to analysis, 0.5 mg/ml propidium iodide (PI, Sigma, St Louis, Mo.) in PBS, pH. 7.4 was added. Flow cytometry was performed with a Beckman Dickenson (Mountain View, Calif.) FACScan using Cellquest 1.2 software. Annexin V-FITC positive, PI negative cells were considered apoptotic.
(§2) Annexin-V binds to phosphatidylserine which is on the inner cytoplasmic membrane of healthy cells and on the outer cytoplasmic membrane of apoptotic cells .

[2] = system: multiple myeloma cell line; assay: Viability of a multiple myeloma cell line treated with nPG, EDAC modified GAG chains or native GAG chains; format: cell-based; conditions: data not shown
Description: Synthetic proteoglycans termed neoproteoglycans (nPG), were produced by EDAC conjugation of the GAG chains heparin or chondroitin sulfate and a protein scaffold. Treatment of a multiple myeloma cell line with either nPG preparation or controls produced by EDAC modification of GAG chains alone reduced cell viability (data not shown). […] Therefore, neoglycans (neoglycans) consisting of EDAC modified heparin (neoheparin) or chondroitin sulfate (neoCS, neoCS) were produced and evaluated for potential anticancer activities.

MDA-MB-231 cells = assay: Apoptosis by Annexin V-FITC staining and PI exclusion, MDA-MB-231; format: cell-based, human; conditions: discussion summary of Annexin V and TUNEL results
Method: as §1, §2

[3] = system: MDA-MB-231 breast cancer tumors; assay: Treatment of established MDA-MB-231 tumors in nude mice; format: in vivo; conditions: single 1.6 mg dose injected into the tumor followed by electroporation
Method: BALB/c nu/nu mice were anesthetized by intraperitoneal administration of a mixture of ketamine (42.8 mg/ml), xylazine (8.6 mg/ml), and acepromazine (1.4 mg/ml) at a dose of 1.8-2.0 ml/kg. Human breast cancer tumors were established following subcutaneous injection of 2×10^6 MDA-MB-231 cells in PBS. Two tumors were established on each mouse. Tumors were injected with a single 1.6 mg dose of chondroitin sulfate or chondroitin sulfate neoglycan in a 50 μl total volume. Immediately following injection, a caliper electrode was positioned on t wo sides of the tumor with contact on the skin. An electrical pulse was applied to the tumor through the electrodes with a BTS EC830 power supply (Genetronics, Inc., San Diego, Calif.). The tumors were measured with calipers and tumor volumes calculated according to the equation: V=(L×W2)×0.5. The results reflect two separate experiments in which one tumor was treated with chondroitin sulfate and the second tumor on the same animal was treated with neoCS. Both experiments included 7 tumors per treatment group.
Therefore, chondroitin sulfate neoglycan was used for evaluation of in vivo neoglycan activity. […] Two tumors per animal developed and were measured just prior to treatment. […] The size of each tumor was determined 48 hours later and at several subsequent time points.

Substance | effect of native GAG chains on cell proliferation [1] | induction of apoptosis in ARP-1 cell line (FIG. 2) (ARP-1 cells) | effect on multiple myeloma cell viability / growth [2] | induction of apoptosis in MDA-MB-231 cell line (FIG. 2) (MDA-MB-231 cells) | effect on established MDA-MB-231 tumors / tumor burden [3]
chondroitin sulfate | no affect | do not induce apoptosis | no growth reducing affect | do not induce apoptosis | does not reduce the tumor burden
heparin | slightly enhances cell proliferation | do not induce apoptosis | no growth reducing affect | do not induce apoptosis | 
